# Tests used:
# Bile acid receptor [1] = target: T1, Bile acid receptor (Homo sapiens, UniProt Q96RI1); assay: Agonist activity at human GST-fused FXR LBD assessed as cofactor peptide interaction with receptor ligand binding domain by FRET assay
# T1 sequence (Q96RI1 whole entry): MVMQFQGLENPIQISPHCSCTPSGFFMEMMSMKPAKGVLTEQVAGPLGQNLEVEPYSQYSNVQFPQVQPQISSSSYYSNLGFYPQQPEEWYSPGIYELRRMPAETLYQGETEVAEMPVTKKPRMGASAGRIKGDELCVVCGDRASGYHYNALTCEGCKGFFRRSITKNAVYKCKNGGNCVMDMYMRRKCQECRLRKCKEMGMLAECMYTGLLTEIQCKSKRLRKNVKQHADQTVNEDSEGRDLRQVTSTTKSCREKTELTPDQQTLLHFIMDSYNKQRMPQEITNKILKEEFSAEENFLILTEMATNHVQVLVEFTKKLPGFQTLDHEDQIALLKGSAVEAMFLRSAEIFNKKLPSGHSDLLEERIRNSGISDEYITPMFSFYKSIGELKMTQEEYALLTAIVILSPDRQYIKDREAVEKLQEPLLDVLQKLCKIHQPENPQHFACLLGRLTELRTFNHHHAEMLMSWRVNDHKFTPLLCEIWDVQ
# [2] = target: T2, Bile acid receptor (Homo sapiens) (UniProt Q96RI1); assay: Agonist activity at human GST-fused FXR LBD assessed as cofactor peptide interaction with receptor ligand binding domain by FRET assay relative to GW-4064
# T2 sequence (whole entry): T1 sequence (Q96RI1 whole entry)
# Bile acid receptor [3] = target: T1, Bile acid receptor; assay: Agonist activity at human […] FXR LBD expressed in HEK293 cells coexpressing GAL4-DNA bindig domain and pFRluc by mammalian one-hybrid assay; assay type: functional, cell-based
# [4] = target: T2, Bile acid receptor (Homo sapiens); assay: Agonist activity at human […] FXR LBD expressed in HEK293 cells coexpressing GAL4-DNA bindig domain and pFRluc by mammalian one-hybrid assay relative to GW-4064; assay type: functional, cell-based
# Bile acid receptor [5] = target: T1, Bile acid receptor; assay: Agonist activity at human full length FXR transfected in HEK293 cells coexpressing pTRexDest/pGL2promotor assessed as luciferase activity by direct reporter cellular assay; assay type: functional, cell-based
# [6] = target: T2, Bile acid receptor (Homo sapiens); assay: Agonist activity at human full length FXR transfected in HEK293 cells coexpressing pTRexDest/pGL2promotor assessed as luciferase activity by direct reporter cellular assay relative to GW-4064; assay type: functional, cell-based
SMILES,EC50 (Bile acid receptor [1]) [nM],Efficacy [2] [%],EC50 (Bile acid receptor [3]; read-out: EC50) [nM],Efficacy [4] [%],EC50 (Bile acid receptor [5]; read-out: EC50) [nM],Efficacy [6] [%],EC50 (Bile acid receptor [3]; hek293),EC50 (Bile acid receptor [5]; hek293)
CC(C)c1onc(-c2c(Cl)cccc2Cl)c1COc1ccc(/C=C/c2cccc(C(=O)O)c2)c(Cl)c1,–,100,–,100,–,100,–,–
Cc1nc(OCc2c(-c3c(Cl)cccc3Cl)noc2C(C)C)ccc1N(C)C(=O)c1ccc(C(=O)O)cc1,365,95,2030,21,1190,49,–,–
CC(C)c1onc(-c2c(Cl)cccc2Cl)c1COc1ccc(N(C)C(=O)c2cccc(C(=O)O)c2)c(C(F)(F)F)n1,433,110,571,35,537,55,–,–
CC(C)c1onc(-c2c(Cl)cccc2Cl)c1COc1cnc(N(C)Cc2cccc(C(=O)O)c2)c(Cl)c1,190,105,100,42,61,54,–,–
O=C(O)c1ccccc1OCc1ccc(OCc2c(-c3c(Cl)cccc3Cl)noc2C2CC2)nc1C(F)(F)F,434,91,1710,63,611,33,–,–
CC(C)c1onc(-c2c(Cl)cccc2Cl)c1COc1cnc(N(C)Cc2ccc(C(=O)O)cc2)c(Cl)c1,242,103,107,70,120,51,–,–
CC(C)c1onc(-c2c(Cl)cccc2Cl)c1COc1ccc(NC(=O)c2ccc(C(=O)O)cc2)c(C(F)(F)F)n1,452,109,474,21,385,48,–,–
Cc1cc(C(F)(F)F)cc(OCc2c(-c3c(Cl)cccc3Cl)noc2C(C)C)n1,225,–,–,–,–,–,Not Active,Not Active
CC(C)c1onc(-c2c(Cl)cccc2Cl)c1COc1ccc(N(C)C(=O)c2ccc(C(=O)O)cc2)c(C(F)(F)F)n1,235,101,316,36,208,63,–,–
Cc1cc(OCc2c(-c3c(Cl)cccc3Cl)noc2C(C)C)ncc1[N+](=O)[O-],–,101,–,58,–,76,–,–
CC(c1ccc(OCc2c(-c3c(Cl)cccc3Cl)noc2C2CC2)nc1C(F)(F)F)N(C)c1ccc(C(=O)O)cc1 (stereo not given),179,102,208,55,182,57,–,–
CCN(Cc1ccc(C(=O)O)cc1)c1ccc(OCc2c(-c3c(Cl)cccc3Cl)noc2C2CC2)nc1C(F)(F)F,194,94,180,54,113,43,–,–
CC(Oc1ccc(C(=O)O)cc1)c1ccc(OCc2c(-c3c(Cl)cccc3Cl)noc2C2CC2)nc1C(F)(F)F (stereo not given),352,89,189,70,611,33,–,–

# Second part, the compound after the results:
EC50 (Bile acid receptor [1]) [nM],Efficacy [2] [%],EC50 (Bile acid receptor [3]; read-out: EC50) [nM],Efficacy [4] [%],EC50 (Bile acid receptor [5]; read-out: EC50) [nM],Efficacy [6] [%],EC50 (Bile acid receptor [3]; hek293),EC50 (Bile acid receptor [5]; hek293),SMILES
12,102,80,89,6,58,–,–,CC(C)c1onc(-c2c(Cl)cccc2Cl)c1COc1ccc(N(C)Cc2cccc(C(=O)O)c2)c(C(F)(F)F)n1
155,102,107,50,58,49,–,–,CC(Oc1cccc(C(=O)O)c1)c1ccc(OCc2c(-c3c(Cl)cccc3Cl)noc2C2CC2)nc1C(F)(F)F (stereo not given)
89,–,1000,–,1140,–,–,–,Cc1cc(OCc2c(-c3c(Cl)cccc3Cl)[n-][o+]c2C(C)C)ncc1[N+](=O)[O-]
36,114,457,48,216,61,–,–,CC(C)c1onc(-c2c(Cl)cccc2Cl)c1COc1ccc(N(C)Cc2cccc(C(=O)NCCOP(=O)(O)O)c2)c(C(F)(F)F)n1
40,105,221,64,11,67,–,–,CC(C)c1onc(-c2c(Cl)cccc2Cl)c1COc1ccc(N(C)Cc2ccc(C(=O)NS(C)(=O)=O)cc2)c(C(F)(F)F)n1
147,104,536,40,878,68,–,–,Cc1cc(OCc2c(-c3c(Cl)cccc3Cl)noc2C(C)C)nc2ccccc12
101,99,333,59,202,49,–,–,CC(Nc1ccc(C(=O)O)cc1)c1ccc(OCc2c(-c3c(Cl)cccc3Cl)noc2C2CC2)nc1C(F)(F)F (stereo not given)
164,87,1150,43,155,59,–,–,CC(C)c1onc(-c2c(Cl)cccc2Cl)c1COc1ccc(N(C)Cc2ccc(OCCO)cc2)c(C(F)(F)F)n1
76,86,95,59,38,42,–,–,O=C(O)c1ccc(OCc2ccc(OCc3c(-c4c(Cl)cccc4Cl)noc3C3CC3)nc2C(F)(F)F)cc1
48,110,279,59,20,72,–,–,CC(C)c1onc(-c2c(Cl)cccc2Cl)c1COc1ccc(N(C)Cc2cccc(C(=O)NS(C)(=O)=O)c2)c(C(F)(F)F)n1
35,90,214,69,19,59,–,–,CC(C)c1onc(-c2c(Cl)cccc2Cl)c1COc1ccc(N(C)Cc2ccc(OCC(=O)O)cc2)c(C(F)(F)F)n1
17,96,35,55,16,66,–,–,CC(C)c1onc(-c2c(Cl)cccc2Cl)c1COc1ccc(N(C)Cc2ccc(CCC(=O)O)cc2)c(C(F)(F)F)n1
162,97,398,48,101,45,–,–,CC(C)c1onc(-c2c(Cl)cccc2Cl)c1COc1ccc(NCc2ccc(C(=O)O)cc2)c(C(F)(F)F)n1
43,98,151,62,33,41,–,–,O=C(O)c1cccc(OCc2ccc(OCc3c(-c4c(Cl)cccc4Cl)noc3C3CC3)nc2C(F)(F)F)c1
